Assay results taken from PubChem BioAssay (NCI).
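Cultured in 96-well plates, cells were exposed to test compound for 48 hours across five concentrations. TGI denotes the concentration required for complete inhibition of growth.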

How the values were obtained:
Test in all cases: DTP human tumour cell line panel, 48 h
[1] = test system: IGROV1 ovarian
[2] = test system: HCT-116 colon
[3] = test system: HOP-92 NSCLC
[4] = test system: HCT-15 colon
[5] = test system: SNB-19 CNS
[6] = test system: HCC-2998 colon
[7] = test system: CCRF-CEM leukemia

O=C(/C=C/c1ccc(O)c(O)c1)c1cc(O)cc(O)c1
TGI [1]: 27.5 µM | TGI [2]: 25.6 µM | TGI [3]: 26.8 µM | TGI [4]: 29.2 µM | TGI [5]: 28.5 µM

O=c1oc2cc(O)ccc2c(O)c1C(c1cccnc1)c1c(O)c2ccc(O)cc2oc1=O
TGI [1]: > 100 µM | TGI [2]: > 100 µM | TGI [6]: > 100 µM | TGI [3]: > 100 µM | TGI [4]: > 100 µM | TGI [5]: > 100 µM

CN(C)c1ccccc1CN1CCCN(Cc2ccccc2N(C)C)C1c1ccncc1
TGI [1]: 28.1 µM | TGI [2]: 23.3 µM | TGI [3]: 14.8 µM | TGI [4]: 51.7 µM | TGI [5]: 33 µM

COC1(OC)CC(CO)(CNc2cc(Cl)nc(N)n2)C1
TGI [1]: > 100 µM | TGI [2]: > 100 µM | TGI [6]: > 100 µM | TGI [7]: > 100 µM | TGI [4]: > 100 µM | TGI [5]: > 100 µM

C/C(=C/C(=O)Nn1c(Cc2ccccc2)n[nH]c1=O)C(=O)O
TGI [1]: > 100 µM | TGI [2]: > 100 µM | TGI [6]: > 100 µM | TGI [7]: > 100 µM | TGI [4]: > 100 µM | TGI [5]: > 100 µM

CSCCCNC(=O)c1csc(-c2csc(C(CNC(=O)OC(C)(C)C)CNC(=O)OC(C)(C)C)n2)n1
TGI [1]: > 100 µM | TGI [2]: > 100 µM | TGI [3]: > 100 µM | TGI [7]: 44 µM | TGI [4]: > 100 µM | TGI [5]: > 100 µM

Cc1cccnc1/N=C/c1c(O)n(C)c(=O)[nH]c1=O
TGI [1]: > 100 µM | TGI [2]: > 100 µM | TGI [3]: > 100 µM | TGI [4]: > 100 µM | TGI [5]: > 100 µM

O=C1CCC(=O)N1n1c(Cc2ccc(Cl)cc2)n[nH]c1=O
TGI [1]: > 100 µM | TGI [2]: > 100 µM | TGI [6]: > 100 µM | TGI [3]: > 100 µM | TGI [4]: > 100 µM | TGI [5]: > 100 µM

Cc1ccc(OC2CC(n3cnc4ncnc(Cl)c43)OC2Oc2ccc(C)cc2)cc1 (stereo not drawn)
TGI [1]: 55 µM | TGI [2]: > 100 µM | TGI [6]: 24.9 µM | TGI [3]: > 100 µM | TGI [4]: > 100 µM | TGI [5]: 42.5 µM

CCOC(=O)c1ccc(C(=O)/C(C(C)=O)=C2\CCCN2C)n1C
TGI [1]: > 100 µM | TGI [2]: > 100 µM | TGI [6]: > 100 µM | TGI [7]: > 100 µM | TGI [4]: > 100 µM | TGI [5]: > 100 µM

Nc1nc(N)c2ncn(Cc3ccccc3CCl)c2n1
TGI [1]: > 100 µM | TGI [2]: > 100 µM | TGI [3]: > 100 µM | TGI [7]: > 100 µM | TGI [4]: > 100 µM | TGI [5]: > 100 µM

N#CCCC1(CCC#N)CCCCCCCCC(CCC#N)(CCC#N)C(=O)C1=O
TGI [2]: > 100 µM | TGI [6]: > 100 µM | TGI [3]: > 100 µM | TGI [4]: > 100 µM | TGI [5]: > 100 µM

CCCCCCCCCCCCOP(=O)(O)OCC(N)C(=O)O (stereo not drawn)
TGI [1]: > 100 µM | TGI [2]: 27.6 µM | TGI [6]: > 100 µM | TGI [3]: 43.3 µM | TGI [4]: 36.6 µM | TGI [5]: 44 µM

CC(=O)O[C@@H]1C2=C(C)C=C(O2)[C@H]2O[C@]2(C)C[C@H]2C=C(C(=O)O2)[C@H](OC(C)=O)CC1[C@@]1(C)CO1 (stereo partly drawn)
TGI [1]: 30.8 µM | TGI [2]: 28.4 µM | TGI [6]: > 100 µM | TGI [7]: 29.6 µM | TGI [4]: 63.6 µM | TGI [5]: > 100 µM

N#C/C(=C\NC(=S)c1ccncc1)c1nc2ccccc2s1
TGI [1]: > 100 µM | TGI [2]: > 100 µM | TGI [6]: > 100 µM | TGI [3]: > 100 µM | TGI [4]: > 100 µM | TGI [5]: > 100 µM

CN(C)c1nncc2[nH]cnc12
TGI [1]: > 100 µM | TGI [2]: > 100 µM | TGI [7]: > 100 µM | TGI [4]: > 100 µM | TGI [5]: > 100 µM

Cc1ccc(O)c(-c2cc(-c3cccc(Cl)c3)c(C#N)c(N)n2)c1
TGI [1]: 24.6 µM | TGI [2]: 30.1 µM | TGI [3]: 48.1 µM | TGI [7]: 55.2 µM | TGI [4]: 28 µM

Fc1ccc2nc3n(c2c1)C(c1c(Cl)cccc1Cl)SC3 (stereo not drawn)
TGI [1]: > 100 µM | TGI [2]: > 100 µM | TGI [6]: > 100 µM | TGI [3]: > 100 µM | TGI [4]: > 100 µM | TGI [5]: > 100 µM

COC(=O)C1=C(O)C(C(=O)OC)[C@]2(O)[C@H](C(=O)OC)[C@H]1C[C@@H](c1c(Cl)cccc1Cl)[C@H]2C(=O)OC (stereo partly drawn)
TGI [1]: 5.99 µM | TGI [2]: 3.42 µM | TGI [6]: 3.03 µM | TGI [3]: 14 µM | TGI [4]: 4.49 µM | TGI [5]: 5.13 µM

NC1CC2NC3CCCCC3NC2CC1N (stereo not drawn)
TGI [1]: > 100 µM | TGI [2]: > 100 µM | TGI [6]: > 100 µM | TGI [7]: > 100 µM | TGI [4]: > 100 µM | TGI [5]: > 100 µM

CC(=O)OCC1OC(SC2OC(COC(C)=O)C(OC(C)=O)C(OC(C)=O)C2OC(C)=O)C(OC(C)=O)C(OC(C)=O)C1OC(C)=O (stereo not drawn)
TGI [1]: > 100 µM | TGI [2]: > 100 µM | TGI [6]: > 100 µM | TGI [7]: > 100 µM | TGI [4]: > 100 µM | TGI [5]: > 100 µM

CC1OC(O[C@H]2C3C=CO[C@@H](OC4OC(CO)C(O)C(O)C4O)C3[C@@]3(COC(=O)/C=C/c4ccc(O)cc4)O[C@@H]23)C(O)C(O)C1O (stereo partly drawn)
TGI [1]: > 100 µM | TGI [2]: > 100 µM | TGI [6]: > 100 µM | TGI [3]: > 100 µM | TGI [4]: > 100 µM | TGI [5]: > 100 µM

Cc1ccc(-n2[nH]nc(C#N)c2=O)cc1
TGI [1]: > 100 µM | TGI [2]: > 100 µM | TGI [6]: > 100 µM | TGI [7]: > 100 µM | TGI [4]: > 100 µM | TGI [5]: > 100 µM

CCOC(=O)Cc1nc2sc(S(N)(=O)=O)nn2c1Br
TGI [1]: 90.8 µM | TGI [2]: 96.5 µM | TGI [6]: 48.1 µM | TGI [3]: 41.1 µM | TGI [4]: 77.5 µM | TGI [5]: > 100 µM
